Data on three compounds can be found in patent publication US20070004727A1, “Use of compounds for the prevention of drug-induced cell toxicity” (Reception ApS c/o Ostysk Innovation A/S, priority 2003, published 2007).

In the assay the test system is uptake of gentamicin into the mouse kidneys. Kind of assay: Gentamicin uptake in mouse kidneys following i.p. administration of the compound. The note with it: for Effect of the inhibitors on the uptake of gentamicin into the mouse kidneys: 3 mg of inhibitor intraperitoneally in mice, as in Example 1 (FIG. 6), ranked among six inhibitors tested. It is filed as in vivo. As to the method:
The effect of a compound, 2-[4-(2-aminoethyl)piperazin-1-yl]ethylamine (Aldrich, D2,340-8, lot 06028BO-332), according to the invention was tested in vivo. Gentamicin uptake in mouse kidneys following intraperitoneal (i.p.) administration of the compound was measured.
For normal application of radioactive gentamicin the following was performed: I.p. injection of 50 micrograms per kg of tritiated gentamicin with or without 3 mg of the inhibitor per mouse.
For competition of clinical doses of gentamicin 50 micrograms/kg of tritiated gentamicin plus 5 mg/kg of cold gentamicin (clinical dose) were injected in admixture with 3 mg total of 2-[4-(2-aminoethyl)piperazin-1-yl]ethylamine per mouse. A control received gentamicin only.
In this experiment 3 mg of the inhibitors 3-methylamino-1-(4-methylpiperazino)-2-propanole, 4-piperazinoaniline, piperazin-2-one-HCl, 2-[4-(2-aminoethyl)piperazin-1-yl]ethylamine, piperazine anhydrous, and 0.5 mg of 1-(3-chlorophenyl)piperazine diHCl (m-CPP), respectively, were administered intraperitoneally in mice (see FIG. 6) as described in Example 1. The effect of the inhibitors on the uptake of gentamicin into the mouse kidneys was determined by means of the assay described in Example 1.

For the compound `NCCN1CCN(CCN)CC1` [2-[4-(2-aminoethyl)piperazin-1-yl]ethylamine], the “Effect of the inhibitors on the uptake of gentamicin into the mouse kidneys” value is “strongest gentamicin inhibitors”. For the same compound, the “Inhibition (of gentamicin uptake in mouse kidneys) compared to the control” value (i.p., 50 micrograms/kg tritiated gentamicin plus 5 mg/kg cold gentamicin (clinical dose) in admixture with 3 mg total of compound per mouse, control received gentamicin only) stood at 40%.
With `Cl.O=C1CNCCN1` [piperazin-2-one-HCl], the “Effect of the inhibitors on the uptake of gentamicin into the mouse kidneys” value is “strongest gentamicin inhibitors”.
On the same count and under the same terms, then `C1CNCCN1` [piperazine anhydrous], with “strongest gentamicin inhibitors”.
